From US12539335B2, “Tricyclic polypeptide conjugated drug and use thereof” (CONJUSTAR (ZHUHAI) BIOLOGICS CO., LTD., priority 2021, dated 2026)
Counter-ions that a name gives are not always drawn. Starred links: 1 amine or outer side, 2 acyl side, 3 side chain; linkers in the order of their positions; H or OH if unused. Positions of bridges follow the written chain, without caps; N, C: chain ends. Non-standard residues stand in square brackets, D forms with d. Residues, ends and D or L forms follow the SMILES beside them. Chains are numbered I, II in the order given. *: point of attachment. TATA = O=C(CC[*:1])N1CN(C(=O)CC[*:2])CN(C(=O)CC[*:3])C1; Dolaproine = CO[C@@H]([C@@H]1CCCN1)[C@@H](C)C(=O)O; Dil = CC[C@H](C)[C@H](NC)[C@@H](CC(=O)O)OC; 1Nal = N[C@@H](Cc1cccc2ccccc12)C(=O)O; X2 = O=C(CCCC(=O)[*:2])NCCC(=O)[*:1]; PABC = O=C(OCc1ccc(N[*:1])cc1)[*:2]; X1 = C[C@@H](N*)[C@@H](O)c1ccccc1; Hyp = O=C(O)[C@@H]1C[C@@H](O)CN1; hArg = N=C(N)NCCCC[C@H](N)C(=O)O; Cit = NC(=O)NCCC[C@H](N)C(=O)O; Pen = CC(C)(S)[C@H](N)C(=O)O; NMeV = CN[C@H](C(=O)O)C(C)C; hCys = N[C@@H](CCS)C(=O)O; Sar = CNCC(=O)O

Tests used:
Human Nectin-4 = molecular target: T1, Human Nectin-4 (Homo sapiens, UniProt Q96NY8); experiment: Binding capacity to Nectin-4 protein (SPR, Biacore 8K)
T1 construct: purchased GE Healthcare 1006-72
T1 sequence (Q96NY8 32-510): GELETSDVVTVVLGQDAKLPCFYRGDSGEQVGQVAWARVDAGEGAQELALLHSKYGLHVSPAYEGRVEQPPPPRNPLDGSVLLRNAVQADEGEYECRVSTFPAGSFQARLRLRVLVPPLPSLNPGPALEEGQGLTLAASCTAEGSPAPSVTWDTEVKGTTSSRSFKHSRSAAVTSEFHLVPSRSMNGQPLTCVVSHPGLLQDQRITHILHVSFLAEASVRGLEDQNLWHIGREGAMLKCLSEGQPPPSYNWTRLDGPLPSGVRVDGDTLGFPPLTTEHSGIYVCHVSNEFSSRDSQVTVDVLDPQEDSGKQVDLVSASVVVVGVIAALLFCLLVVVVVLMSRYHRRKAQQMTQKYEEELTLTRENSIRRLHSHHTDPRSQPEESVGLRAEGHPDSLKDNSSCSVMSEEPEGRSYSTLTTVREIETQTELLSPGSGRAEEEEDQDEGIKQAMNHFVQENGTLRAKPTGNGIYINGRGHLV
Experimental: Test Example 1. Binding Capacity Test of the Compounds of the Present Invention to Nectin-4 Protein
To detect the affinity of the compound to be tested to the target protein Nectin-4 using the SPR method.
• Biacore 8K (GE Healthcare) • 96-well Plate (Cat #650101, greiner bio-one) • CM5 chip (Cat #BR-1005-30, GE Healthcare) • Amine Coupling Kit (Cat #BR-1000-50, GE Healthcare) • EDC • NHS • 1 M ethanolamine • 10 mM sodium acetate pH 4.5 (Cat #BR-1003-50, GE Healthcare) • DMSO (Cat #D4540, Sigma) • P20 (Cat #BR-1000-54, GE Healthcare) • PBS (Cat #BR-1006-72, GE Healthcare) • Nectin-4 (Cat #1006-72, GE Healthcare) 3. Experimental Protocol
In this experiment, the amino coupling method was used. The target protein Nectin-4 was directly immobilized on the CM5 chip using Biacore 8K. […] The final data were subjected to Kinetics fitting analysis based on a 1:1 model using Biacore Insight Evaluation Software (V 2.0.15.12933).
1) Preparation of the buffer: 10 mM PBS, pH 7.4, 137 mM NaCl, 2.7 mM KCl, 5% DMSO, and 0.05% P20.
2) Activation of the CM5 chip: The CM5 chip was activated with 400 mM EDC and 100 mM NHS at a flow rate of 10 μL/min for 420 seconds.
3) Coupling of the target protein: The target protein was diluted to 10 μg/mL with 10 mM sodium acetate (pH 4.5) and coupled at a flow rate of 10 μL/min for 284 s. The 1 #, 2 #, and 3 #channels on the chip were used in the experiment, and the coupling results were 1639.9RU, 1747.8RU, and 1702.2RU, respectively.
4) Blocking of the CM5 chip: The CM5 chip was blocked with 1 M ethanolamine at a flow rate of 10 μL/min for 420 seconds.
5) Analyte concentration: The compound to be tested was diluted with the buffer. The compound to be tested was diluted from 100 nM to 0.78 nM in a 2-fold gradient.
6) Sample injection analysis: Each concentration of the working solution of the compound to be tested corresponded to one cycle, with a flow rate of 30 μL/min for binding for 180 seconds and dissociating for 180 seconds. The last cycle was a 5% DMSO solvent correction cycle.
7) All results were subjected to kinetics fitting analysis based on a 1:1 model. […]

[1] = Pharmacokinetic analysis in Cynomolgus macaque plasma; assay type: in vivo; details: Cynomolgus macaques, single IV 1 mg/kg of the compound
Experimental: Test Example 6: Pharmacokinetic Analysis in Cynomolgus Macaque Plasma
To test the pharmacokinetics of the compounds of the present invention in Cynomolgus macaques.
(§1) The pharmacokinetic characteristics of the compound after intravenous injection were tested according to a standard protocol in Cynomolgus macaques. The compound to be tested was formulated into a clear solution using 25 mM L-histidine (pH=7) in 10% sucrose as a vehicle. Cynomolgus macaques were given a single intravenous injection of 1 mg/kg of the compound to be tested. Whole blood was collected at time points of 0.083, 0.25, 0.5, 1, 2, 4, 8, and 24 hours after administration to get plasma. The concentration of the compound to be tested and the concentration of its potential metabolite MMAE were analyzed by the LC-MS/MS method, and the pharmacokinetic parameters were calculated by Phoenix WinNonlin software.

[2] = Pharmacokinetic analysis in rat plasma; assay type: in vivo, SD rats
Experimental: Test Example 5: Pharmacokinetic Analysis of the Compounds of the Present Invention in Rat Plasma
To test the pharmacokinetics of the compounds of the present invention in SD rats.
as §1, with “were tested in rats according to” for “were tested according to”, “a standard protocol. The compound” for “a standard protocol in Cynomolgus macaques. The compound”, “a vehicle. Two rats were given” for “a vehicle. Cynomolgus macaques were given”, “injection of 3 mg/kg of” for “injection of 1 mg/kg of”, “the compound of the present invention and the” for “the compound to be tested and the”

[3] = metabolite MMAE in SD rat plasma after single IV 3 mg/kg acetate salt of PDC_2

## CC[C@H](C)[C@@H]([C@@H](CC(=O)N1CCC[C@H]1[C@H](OC)[C@@H](C)C(=O)N[C@H](C)[C@@H](O)c1ccccc1)OC)N(C)C(=O)[C@@H](NC(=O)[C@H](C(C)C)N(C)C(=O)OCc1ccc(NC(=O)[C@H](CCCNC(N)=O)NC(=O)[C@@H](NC(=O)CCCC(=O)NCCC(=O)N(C)CC(=O)N(C)CC(=O)N(C)CC(=O)N(C)CC(=O)N(C)CC(=O)N(C)CC(=O)N(C)CC(=O)N(C)CC(=O)N(C)CC(=O)N(C)CC(=O)N[C@H]2CCCCNC(=O)C[C@@H](C(=O)N[C@H]3CSCCC(=O)N4CN5CN(C4)C(=O)CCSC(C)(C)[C@H](NC(=O)[C@@H](CC(=O)O)NC(=O)[C@H](Cc4cccc6ccccc46)NC(=O)[C@@H]4CCCN4C3=O)C(=O)N[C@@H](CCSC)C(=O)N[C@@H](CCCCNC(=N)N)C(=O)N[C@@H](CC(=O)O)C(=O)N[C@@H](Cc3c[nH]c4ccccc34)C(=O)N[C@@H](CO)C(=O)N[C@@H]([C@@H](C)O)C(=O)N3CCC[C@H]3C(=O)N3C[C@H](O)C[C@H]3C(=O)N[C@@H](Cc3c[nH]c4ccccc34)C(=O)N[C@H](C(N)=O)CCSCCC5=O)NC(=O)CN(C)C2=O)C(C)C)cc1)C(C)C [Acetate salt of PDC_3] (I: [Sar][Sar][Sar][Sar][Sar][Sar][Sar][Sar][Sar][Sar]K[Sar]DCP[1Nal][dD][Pen]M[hArg]DWSTP[Hyp]W[hCys]-NH2 / II: V[Cit][PABC][NMeV]V[Dil][Dolaproine]-X1; lactam I:11-I:13; linker I:14-I:18-I:28 via TATA; linker I:N-II:N via X2)
Human Nectin-4
  Kd: 4.13 nM

## CC[C@H](C)[C@@H]([C@@H](CC(=O)N1CCC[C@H]1[C@H](OC)[C@@H](C)C(=O)N[C@H](C)[C@@H](O)c1ccccc1)OC)N(C)C(=O)[C@@H](NC(=O)[C@@H](NC)C(C)C)C(C)C [MMAE, monomethyl auristatin E] (H-[NMeV]V[Dil][Dolaproine]-X1)
[1]
  MMAE release in blood: lower MMAE release in blood than a detection limit
[2]; SD rats, single IV 3 mg/kg
  exposure of metabolite MMAE relative to exposure of the compound: about 1/40
[2]; [3]
  AUC0-last: 0.11 µM·h
  Cmax: 70 nM

## CC[C@H](C)[C@@H]([C@@H](CC(=O)N1CCC[C@H]1[C@H](OC)[C@@H](C)C(=O)N[C@H](C)[C@@H](O)c1ccccc1)OC)N(C)C(=O)[C@@H](NC(=O)[C@H](C(C)C)N(C)C(=O)OCc1ccc(NC(=O)[C@H](CCCNC(N)=O)NC(=O)[C@@H](NC(=O)CCCC(=O)NCCC(=O)N(C)CC(=O)N(C)CC(=O)N(C)CC(=O)N(C)CC(=O)N(C)CC(=O)N(C)CC(=O)N(C)CC(=O)N(C)CC(=O)N(C)CC(=O)N(C)CC(=O)N[C@H]2CCCCNC(=O)C[C@@H](C(=O)N[C@H]3CSCCC(=O)N4CN5CN(C4)C(=O)CCSC(C)(C)[C@H](NC(=O)[C@@H](CC(=O)O)NC(=O)[C@H](Cc4cccc6ccccc46)NC(=O)[C@@H]4CCCN4C3=O)C(=O)N[C@@H](CCSC)C(=O)N[C@@H](CCCCNC(=N)N)C(=O)N[C@@H](CC(=O)O)C(=O)N[C@@H](Cc3c[nH]c4ccccc34)C(=O)N[C@@H](CO)C(=O)N[C@@H]([C@@H](C)O)C(=O)N3CCC[C@H]3C(=O)N3C[C@H](O)C[C@H]3C(=O)N[C@@H](Cc3c[nH]c4ccccc34)C(=O)N[C@H](C(N)=O)CSCCC5=O)NC(=O)[C@H](CCCCNC(=N)N)NC2=O)C(C)C)cc1)C(C)C [Acetate salt of PDC_1] (I: [Sar][Sar][Sar][Sar][Sar][Sar][Sar][Sar][Sar][Sar]K[hArg]DCP[1Nal][dD][Pen]M[hArg]DWSTP[Hyp]WC-NH2 / II: V[Cit][PABC][NMeV]V[Dil][Dolaproine]-X1; lactam I:11-I:13; linker I:14-I:18-I:28 via TATA; linker I:N-II:N via X2)
Human Nectin-4
  Kd: 1.4 nM
